In BindingDB's records for doi:10.1021/bi000930v (Max Planck Institute, 2001):

Tests used:
[1] = target: T1, E3 ubiquitin-protein ligase Mdm2 (Homo sapiens, UniProt Q00987); assay: p53-MDM2 Binding ELISA; conditions: pH 7.4; 23 °C
Procedure: Interference of the p53-MDM2 binding by test compounds was measured in a 96-well polypropylene round-bottom microtiter plate (Costar, Serocluster). Human MDM2 (amino acids 1-118) was preincubated with 10% DMSO or compounds in assay buffer. After 15-min incubation of the sample, a biotinylated p53-derived peptide was added. As a negative control, buffer only was added into separate wells (blanks). After another 30 min, the incubation mixture was added to 96-well plates coated with streptavidin. After 1 h, the wells were extensively washed. Then, the MDM2 specific antibody was added. After 1 h, the wells were thoroughly washed and the secondary antibody (anti-rabbit-IgG-POD) was added. After another hour, the wells were washed, and the peroxidase subtrate ABTS was added. After 30 min, OD 405/490 nm was determined with a Dynatech MR 7000 ELISA reader.

[2] = target: T1, E3 ubiquitin-protein ligase Mdm2; assay: NMR Titration Experiment; conditions: pH 7.4; 23 °C
Procedure: NMR measurements consisted of monitoring changes in chemical shifts and line widths of the backbone amide resonances of uniformly 15N-enriched MDM2 samples in a series of HSQC spectra as a function of a ligand concentration. The complexes of human MDM2 and the chalcones were prepared by mixing the protein and the ligand in the NMR tube. Typically, NMR spectra were recorded 15 min after mixing at room temperature. An initial screening of all compounds used in this study was performed with a 10-fold molar excess of chalcone to human MDM2. […] All KD values obtained by NMR spectroscopy are based on at least six data points.

T1 sequence (Q00987 whole entry, the tested form may be a part): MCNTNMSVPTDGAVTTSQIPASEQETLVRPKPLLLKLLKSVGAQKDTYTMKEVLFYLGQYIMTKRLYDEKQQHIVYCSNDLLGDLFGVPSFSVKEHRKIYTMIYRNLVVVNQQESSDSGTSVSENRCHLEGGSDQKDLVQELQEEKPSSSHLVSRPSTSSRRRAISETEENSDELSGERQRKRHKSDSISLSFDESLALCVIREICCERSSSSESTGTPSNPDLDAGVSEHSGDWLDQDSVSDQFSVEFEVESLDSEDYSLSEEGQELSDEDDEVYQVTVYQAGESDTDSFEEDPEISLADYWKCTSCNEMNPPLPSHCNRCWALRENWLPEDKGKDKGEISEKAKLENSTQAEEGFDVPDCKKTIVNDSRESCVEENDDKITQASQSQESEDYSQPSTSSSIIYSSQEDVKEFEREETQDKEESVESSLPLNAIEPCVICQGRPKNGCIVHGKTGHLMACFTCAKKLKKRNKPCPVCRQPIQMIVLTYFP

| SMILES | IC50 [1] [µM] | Kd [2] [µM] |
| --- | --- | --- |
| CC(C)(Oc1ccc(/C=C/C(=O)c2ccc(Cl)cc2)cc1)C(=O)O [Chalcone derivative, C] | 250 | 244 |
| O=C(O)COc1ccc(/C=C/C(=O)c2ccc(Cl)c(Cl)c2)cc1 [Chalcone derivative, B] | 49 | 90 |
| Oc1ccc2ccc3c(c2c1)CN(Cc1ccccc1)CO3 [Chalcone derivative, D] | > 250 |  |
| O=C(C(=S)Nc1ccccc1)C(C=Nc1ccccc1)c1ccccc1 (centres undefined) [Chalcone derivative, H] | > 250 |  |
| CCOc1ccc(NC(=O)CC(=Nc2ccccc2)c2ccccc2)cc1 [Chalcone derivative, G] | > 250 |  |
| O=C(O)COc1ccc(/C=C/C(=O)c2ccc(Cl)cc2)cc1 [Chalcone derivative, A] | 206 | 220 |
| O=C(CC(=Nc1ccccc1)c1ccccc1)Nc1ccccc1 [Chalcone derivative, F] | > 250 |  |
| O=C(O)COc1ccc(C(=O)/C=C/c2ccc(Cl)c(Cl)c2)cc1 [Chalcone derivative, B-1] | 117 | 150 |
| O=C(O)COc1c(Br)cc(/C=C/C(=O)c2ccc3ccccc3c2)cc1Br [Chalcone derivative, N] |  | 270 |
| CCOC(=O)C(C)(C)Oc1ccc(CCNC(=O)/C=C/C(=O)c2ccc(Cl)cc2)cc1 [Chalcone derivative, E] | > 250 |  |
